For series [1], the system named is SIP purified proteases (PEP2, PEP3, PEP4, PEP5, GAP1, SLP2). The series is described as follows: Protease activity of SIP purified fractions against casein with inhibitors (EnzChek). Format: biochemical, Trichoderma reesei. Particulars: pH 5.5. As for the experimental part:
Protease activity was then tested against casein both in the presence and absence of protease inhibitors. Protease activity against casein was tested using the EnzChek protease assay kit (Molecular probes #E6638, green fluorescent casein substrate). The working stock solution was prepared by diluting the stock to 10 μg ml in 50 mM sodium citrate, pH 5.5. The purified protease fractions (10 μl) were diluted with […] of sodium citrate, pH 5.5. 100 μl of the diluted substrate was combined with the diluted protease fractions in a 96 well sample plate. The plate was then covered and kept at 37° C. for one to three hours. Fluorescence readings were taken at one, two, and three hours with a Varioskan fluorescent plate reader (Thermo Scientific) using 485 nm excitation and 530 nm emission.
The SIP inhibitor peptide, pepstatin A, LIP peptide, SBTI, and chymostatin were used as inhibitors. […] SIP, LIP, and pepstatin A were used at a concentration of 60 μM, and SBTI was used at a concentration of 200 μg/ml.

For series [2], the system named is rituximab antibody producing strain. As to the kind of experiment: Treatment of T. reesei rituximab cultures with inhibitors. It is filed as cell-based, Trichoderma reesei. As for the experimental part: The effectiveness of the inhibitors was also tested with the rituximab antibody producing strain, which contains a VALEKR linker sequence and the pep1 deletion. This strain was grown in triplicate, in small flasks both in presence or absence of chymostatin, SBTI, or pepstatin A. The small shake flasks contained 50 ml of TrMM plus lactose (40 g/l), spent grain extract (20 g/l), and buffer with 100 mM PIPPS at pH 5.5. The SBTI inhibitor was added to the culture at final concentrations of either 100 μg/ml or 500 μg/ml. Chymostatin was used at 100 μM, and pepstatin A was used at 10 μM. Each of the three inhibitors was added to the cultures daily on day 2, 3, 4, and 5.
Growth of the cultures was followed daily by pH from day 2 until day 7. […] In the PIPPS buffered cultures, the pH decreased from an initial pH of 5.5 down to a pH of 4.8 after day 6. With chymostatin and pepstatin A the cultures were monitored up to day 7. On day 7 the average pH for the control bottles was 4.6, while the average pH for chymostatin treated cultures was 4.9, and the average pH of pepstatin A treated cultures was 5.0.
Culture supernatant samples (30 μl) were also collected on days 3, 4, and 5 for analysis of antibody production. The analysis was performed by immunoblots using an anti-IgG heavy chain antibody AP conjugate (Sigma #A3188) and an anti-light chain antibody AP conjugate (Sigma #A3812). Each antibody was diluted 1:30,000 in TBST. The full length rituximab heavy chain is about 51 kD, the rituximab light chain CHBI fusion is about 100 kD, and the free rituximab light chain is about 28 kD.

The subject of series [3] is M369 human growth hormone strain. As to the kind of experiment: hGH production in 24 well cultures with inhibitors and supplements. Format: cell-based, Trichoderma reesei. The settings on record: 24 well culture, pH 4.5, day 4 immunoblot. How it is done: To evaluate what inhibitors would best stabilize production of hGH, 24 well cultures of these strains were performed. The M369 human growth hormone strain (Δpep1Δtsp1Δslp1Δgap1Δgap2) was grown along with single components or with combinations of the following: trypsin and subtilisin inhibitor SBTI, the acidic protease inhibitor peptide SIP, the acidic protease inhibitor peptide LIP, the aspartic protease inhibitor pepstatin A free peptide, pepstatin A immobilized to agarose beads, the trypsin and subtilisin inhibitor BBI from lima bean, the […] chymostatin, and BSA. Three independent wells were chosen for control wells where no inhibitors or supplements were added. These two strains were grown in 3 ml of TrMM with diammonium citrate without ammonium sulfate, 100 mM PIPPS, 20 g/L spent grain extract, 40 g/L lactose adjusted to pH 4.5. The 24 well plates were shaken at 800 rpm, 85% humidity, and 28° C. The cultures were grown for 6 days and covered with an air permeable membrane.
Inhibitors were added first on day 1 and then daily beginning on day 3. 100 μl samples were taken from the culture wells beginning on day 3. The mycelium was spun down for 5 minutes at 13 k and the supernatant collected. From the culture supernatant 12 μl was loaded in a 4-20% SDS PAGE gel and immunoblotting made on nitrocellulose with mouse anti-hGH antibody (2 μg/ml) and goat anti-mouse IgG AP conjugated secondary antibody diluted 1:10,000 in TBST.
Estimating the expression levels relative to the 200 ng control sample, the control wells produced between 3-6 mg/L of hGH, the BSA (0.25%)/SIP (50 μM)/8BTI (0.2 mg/ml) treatment produced 24.5 mg/L, the SIP (50 μM)/8BTI (0.2 mg/ml) treatment produced 26.6 mg/L, and the pepstatin A beads/SBTI (0.2 mg/ml) addition yielded 24.5 mg/L of hGH. Therefore, using a combination of inhibitors and additives worked best increasing the production levels by at least 4-fold. The critical parameter was to include an aspartic protease inhibitor into the mix.
On the technique in general: In western blotting, separated proteins are transferred to a membrane and probed.

Series [4] relates to tryptic and chymotryptic proteases. As to the kind of experiment: In vitro inhibitor treatment: rituximab heavy chain degradation in M44 supernatant. It is filed as biochemical, Trichoderma reesei. The settings on record: 100 μM chymostatin or 1 mg/ml SBTI; M44 supernatant 6 mg/ml, pH 5.5. How it is done: Based on the knowledge that the heavy chain is cleaved by tryptic and chymotryptic proteases, inhibitors of these two enzyme classes were tested against antibody degradation both in vitro and in culture experiments utilizing an antibody producing T. reesei strain. The inhibitors soybean trypsin inhibitor (SBTI) and chymostatin were tested, as they have been previously shown in in vitro experiments to stabilize antibody heavy chains.
Chymostatin and SBTI were analyzed in vitro with culture supernatant. Supernatant from a fed batch fermentor culture was diluted to 6 mg/ml with sodium citrate buffer pH 5.5 (pH 5.5; 28° C.; 20 g/L spent grain extract, 60 g/L lactose). […] The strain was grown in Trichoderma minimal medium supplemented with 20 g/l spent grain extract and 60 g/l lactose at pH 5.5 and 28° C.
To this diluted supernatant 0.05 μg μl of rituximab, 100 μM chymostatin, 1 mg/ml SBTI, or a combination of both inhibitors was added in a total volume of 50 μl and sampled at 0, 1, and 19 hours to assess the early and late degradation of the rituximab antibody heavy chain. The resulting heavy chain products were analyzed by immunoblot using and anti-heavy chain AP conjugated antibody (Sigma #A3188) diluted 1:30,000 in TBST (FIG. 35). […] Additional fragments were generated after 19 hours, the two major products remained.

Setting [5] is: third chymostatin culture sample, 100 μM.

The structures appear in SMILES notation.

The record followed here is US11180767B2, “Protease deficient filamentous fungal cells and methods of use thereof” (GLYKOS FINLAND OY, priority 2012, dated 2021).

`CC(C)C[C@H](NC(=O)[C@@H](NC(=O)N[C@@H](Cc1ccccc1)C(=O)O)[C@@H]1CCN=C(N)N1)C(=O)N[C@H](C=O)Cc1ccccc1` [chymostatin]: in series [1] (SIP, LIP, pepstatin A 60 μM, SBTI 200 μg/ml), the proteases inhibited entry was “inhibited SLP2”. Moreover, in series [1] (FIG. 11), the “inhibition of SIP purified protease activity against casein” value is reported as “able to inhibit the SLP2 protease”. Further, the “rituximab heavy chain production vs untreated cultures” value in series [2] (day 5, SBTI 100 or 500 μg/ml, chymostatin 100 μM) is given as “increased the amount of full length rituximab heavy chain produced”. The “effect on culture growth (followed by pH)” value in series [2] (small shake flasks, inhibitors added daily day 2-5) is “small reduction in growth”. For the same molecule, in series [2] (setting [5]), the “full length rituximab heavy chain” value is given as “approximately 90%” and the heavy chain fragment is ~10%. Besides, the “effect on hGH production” value in series [3] is listed as “improved the amount of full length product observed”. Also, in series [4], the “rituximab heavy chain fragment formation” value is “inhibited the initial production of the 42 kDa fragment”.
